{"source": "patent US20140065223A1", "about": "“PERFLUORINATED COMPOUNDS FOR THE NON-VIRAL TRANSFER OF NUCLEIC ACIDS” (priority 2011, published 2014)", "system": "Cells of line HEK 293", "assay": "Detection of absorption into the cell: transfection of HEK 293 cells, microscopy / confocal microscopy of rhodamine coloration", "assay_type": "cell-based", "experimental": "To follow the path of the perfluorinated nucleic acids into the cell, the following construct with rhodamine linking was used: The compound was first dissolved in tetrahydrofuran (THF), and this solution was subsequently titrated in isopropanol. […] Cells of line HEK 293 were used as cell culture Transfection was performed one day after cell enlargement. As a control, a transfection was performed with pure rhodamine particles of equivalent rhodamine concentration to test the perfluorinated nucleic acids. […] One explanation of this is possible that the rhodamine is bound to the PFC particle in the perfluorinated nucleic acids and sinks to the bottom as a small particle, whereas the dye is completely dissolved in the medium with pure rhodamine. […] The endosomes and lysosomes filled with perfluorinated nucleic acids were detected throughout the cell cytoplasm."}
{"substance": "rhodamine [pure rhodamine]", "values": [{"measurement": "coloration of the cells", "setting": "20 minutes after transfection", "value": "no defined coloration could be seen"}, {"measurement": "coloration of the cells", "setting": "24 hours after transfection", "value": "substantially weaker and diffuse in comparison on the cell surface instead of in the cytoplasm and granular"}]}
